How the values were obtained:
[1] = molecular target: T1, M4 muscarinic receptor (Homo sapiens, UniProt P08173); experiment: Functional mobilization of intracellular calcium (FLIPR), M4-CHO cells; type: cell-based; settings: for Emax: 100% efficacy is the maximum response obtained using Carbachol as a control; for M4 Activity: M4-CHO cells, FLIPR calcium mobilization
T1 construct: expressed in transfected cells; host or cells: CHO (M4-CHO)
T1 sequence (P08173 1-479): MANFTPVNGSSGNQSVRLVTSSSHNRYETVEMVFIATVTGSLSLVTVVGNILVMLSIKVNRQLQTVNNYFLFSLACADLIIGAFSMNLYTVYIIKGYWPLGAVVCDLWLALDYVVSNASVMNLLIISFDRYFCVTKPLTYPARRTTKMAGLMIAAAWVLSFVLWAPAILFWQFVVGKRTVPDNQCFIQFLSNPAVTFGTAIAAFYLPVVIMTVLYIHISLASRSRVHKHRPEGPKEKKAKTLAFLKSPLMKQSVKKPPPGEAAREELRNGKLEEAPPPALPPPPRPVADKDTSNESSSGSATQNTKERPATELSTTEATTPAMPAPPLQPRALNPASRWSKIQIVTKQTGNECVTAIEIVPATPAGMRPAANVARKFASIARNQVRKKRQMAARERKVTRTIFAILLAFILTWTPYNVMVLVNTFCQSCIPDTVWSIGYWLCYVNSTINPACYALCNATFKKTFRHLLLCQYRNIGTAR
Method in brief: (§1)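 CHO cells expressing M1 or M4, loaded with Fluo-3 AM or Calcium 3 dye with 1 mM probenecid, 0.5% DMSO final. Agonist mode: compound added directly; antagonist mode: 15 min pre-incubation (or co-application) before carbachol at EC80. Fluorescence recorded 60 s on FLIPR.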

[2] = molecular target: T2, M1 muscarinic receptor (Homo sapiens, UniProt P11229); experiment: Functional mobilization of intracellular calcium (FLIPR), M1-CHO cells; type: cell-based; settings: for Emax: 100% efficacy is the maximum response obtained using Carbachol as a control; for M1 Activity: M1-CHO cells, FLIPR calcium mobilization
T2 construct: expressed in transfected cells; host or cells: CHO (M1-CHO)
T2 sequence (P11229 1-460): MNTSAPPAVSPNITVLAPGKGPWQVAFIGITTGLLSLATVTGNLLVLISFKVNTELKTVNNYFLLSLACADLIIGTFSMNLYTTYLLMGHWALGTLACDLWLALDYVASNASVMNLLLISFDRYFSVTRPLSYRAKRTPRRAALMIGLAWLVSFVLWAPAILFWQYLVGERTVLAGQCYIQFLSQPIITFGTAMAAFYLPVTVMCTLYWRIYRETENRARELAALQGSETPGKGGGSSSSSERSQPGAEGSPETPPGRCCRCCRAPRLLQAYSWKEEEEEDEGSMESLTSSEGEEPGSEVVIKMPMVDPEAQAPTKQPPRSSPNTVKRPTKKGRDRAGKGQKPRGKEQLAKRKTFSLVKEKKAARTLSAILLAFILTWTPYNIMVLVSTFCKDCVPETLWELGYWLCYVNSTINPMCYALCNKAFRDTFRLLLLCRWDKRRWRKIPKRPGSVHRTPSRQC
Method in brief: as §1

SMILES	Emax [1]	M4 Activity [1]	Emax [2]	M1 Activity [2]
CC(=O)N1Cc2ccccc2C2(CCN(Cc3cc4ccccc4s3)CC2)C1 [compound 191]	< 25%	+ (activity was measured to be greater than 5.0 μM)	< 25%	+ (activity was measured to be greater than 5.0 μM)
CC(=O)N1Cc2ccccc2C2(CCN(Cc3ccc(C(C)O)cc3)CC2)C1 (stereo not drawn) [compound 335]	< 25%	+ (activity was measured to be greater than 5.0 μM)	< 25%	+ (activity was measured to be greater than 5.0 μM)
CCOC(=O)N1CCC(CN2CCC3(CC2)CN(C(=O)OCC)Cc2ccccc23)CC1 [compound 11]	25 to 100%	+++ (activity was measured to be less than 1.0 μM)	25 to 100%	+++ (activity was measured to be less than 1.0 μM)
Cc1cc(C(=O)N2Cc3ccccc3C3(CCN(C4CC5CCC(C4)N5C(=O)OC4CCC4)CC3)C2)nn1C (stereo not drawn) [compound 223]	25 to 100%	+++ (activity was measured to be less than 1.0 μM)	25 to 100%	+++ (activity was measured to be less than 1.0 μM)
CCOC(=O)N1C2CCC1CC(N1CCC3(CC1)CN(C(=O)NC1CCCC1)Cc1ccccc13)C2 (stereo not drawn) [compound 321]	25 to 100%	+++ (activity was measured to be less than 1.0 μM)	25 to 100%	+++ (activity was measured to be less than 1.0 μM)
COCCOC(=O)N1C2CCC1CC(N1CCC3(CC1)CN(S(=O)(=O)N(C)C)Cc1ccccc13)C2 (stereo not drawn) [compound 249]	25 to 100%	+++ (activity was measured to be less than 1.0 μM)	25 to 100%	+++ (activity was measured to be less than 1.0 μM)
CCON=C1CCC(N2CCC3(CC2)CN(C(C)=O)Cc2ccccc23)CC1 (stereo not drawn) [compound 196, 1-(1′-(4-(ethoxyimino)cyclohexyl)-1H-spiro[isoquinoline-4,4′-piperidine]-2(3H)-yl)ethanone]	25 to 100%	+++ (activity was measured to be less than 1.0 μM)	25 to 100%	+++ (activity was measured to be less than 1.0 μM)
CCOC(=O)N1C2CCC1CC(N1CCC3(CC1)CN(C(=O)c1cnn(-c4ccccc4)c1C(F)(F)F)Cc1ccccc13)C2 (stereo not drawn) [compound 92]	25 to 100%	++ (activity was measured to be from 1.0 μM to 5.0 μM)	25 to 100%	++ (activity was measured to be from 1.0 μM to 5.0 μM)
CC(=O)N1Cc2ccccc2C2(CCN(C3CCC(=O)CC3)CC2)C1 [compound 153]	25 to 100%	++ (activity was measured to be from 1.0 μM to 5.0 μM)	25 to 100%	+ (activity was measured to be greater than 5.0 μM)
CCCOC(=O)N1Cc2ccccc2C2(CCN(C3CCN(C(=O)OCC)CC3)CC2)C1 [compound 254]	25 to 100%	+++ (activity was measured to be less than 1.0 μM)	25 to 100%	+++ (activity was measured to be less than 1.0 μM)
CCOC(=O)N1CCC(CN2CCC3(CC2)CN(C(=O)c2cc4ccccc4s2)Cc2ccccc23)CC1 [compound 80]	25 to 100%	+++ (activity was measured to be less than 1.0 μM)	25 to 100%	+++ (activity was measured to be less than 1.0 μM)
O=C1c2ccccc2C2(CCN(CC3CCCCC3)CC2)N1Cc1ccccc1 [compound 52]	< 25%	+ (activity was measured to be greater than 5.0 μM)	25 to 100%	+ (activity was measured to be greater than 5.0 μM)
CCOC(=O)N1CCC(CN2CCC3(CC2)CN(S(=O)(=O)c2c(C)noc2C)Cc2ccccc23)CC1 [compound 155]	25 to 100%	+++ (activity was measured to be less than 1.0 μM)	25 to 100%	+++ (activity was measured to be less than 1.0 μM)
CCOC(=O)N1C2CCC1CC(N1CCC3(CC1)CN(C(=O)c1snnc1C(C)C)Cc1ccccc13)C2 (stereo not drawn) [compound 220]	25 to 100%	+++ (activity was measured to be less than 1.0 μM)	25 to 100%	+++ (activity was measured to be less than 1.0 μM)
CCOC(=O)N1CCC(CN2CCC3(CC2)CN(C(=O)NC2CCCC2)Cc2ccccc23)CC1 [compound 127]	25 to 100%	+++ (activity was measured to be less than 1.0 μM)	25 to 100%	+++ (activity was measured to be less than 1.0 μM)
CCOC(=O)N1CCC(N2CCC3(CC2)CN(C(=O)N(CC)CC)Cc2ccccc23)CC1 [compound 242]	< 25%	+ (activity was measured to be greater than 5.0 μM)	25 to 100%	+++ (activity was measured to be less than 1.0 μM)
CC(=O)N1Cc2ccccc2C2(CCN(C3CC4CCC(C3)N4C(=O)OC3CCC3)CC2)C1 (stereo not drawn) [compound 348]	25 to 100%	+++ (activity was measured to be less than 1.0 μM)	25 to 100%	+++ (activity was measured to be less than 1.0 μM)
CC(=O)N1Cc2ccccc2C2(CCN(C3(C)CCCCC3)CC2)C1 [compound 4, 1-(1′-(1-methylcyclohexyl)-1H-spiro[isoquinoline-4,4′-piperidine]-2(3H)-yl)ethanone]	25 to 100%	+++ (activity was measured to be less than 1.0 μM)	25 to 100%	++ (activity was measured to be from 1.0 μM to 5.0 μM)
CN(C)S(=O)(=O)N1Cc2ccccc2C2(CCN(C3CC4CCC(C3)N4C(=O)OC3CCC3)CC2)C1 (stereo not drawn) [compound 131]	25 to 100%	+++ (activity was measured to be less than 1.0 μM)	25 to 100%	+++ (activity was measured to be less than 1.0 μM)
CCOC(=O)N1C2CCC1CC(N1CCC3(CC1)CN(C(=O)c1cccs1)Cc1ccccc13)C2 (stereo not drawn) [compound 146]	25 to 100%	+++ (activity was measured to be less than 1.0 μM)	25 to 100%	+++ (activity was measured to be less than 1.0 μM)
CC(=O)Oc1cccc(CN2CCC3(CC2)CN(C(C)=O)Cc2ccccc23)c1 [compound 188]	< 25%	+ (activity was measured to be greater than 5.0 μM)	< 25%	+ (activity was measured to be greater than 5.0 μM)
CCOC(=O)N1CCC(N2CCC3(CC2)CN(C(=O)NC(C)C)Cc2ccccc23)CC1 [compound 104]	25 to 100%	+++ (activity was measured to be less than 1.0 μM)	25 to 100%	+++ (activity was measured to be less than 1.0 μM)
CCOC(=O)N1C2CCC1CC(N1CCC3(CC1)CN(C(=O)CC(F)(F)F)Cc1ccccc13)C2 (stereo not drawn) [compound 126]	25 to 100%	+++ (activity was measured to be less than 1.0 μM)	25 to 100%	+++ (activity was measured to be less than 1.0 μM)
CCOC(=O)N1CCC(N2CCC3(CC2)CN(C(=O)CC)Cc2ccccc23)CC1 [compound 6]	25 to 100%	+++ (activity was measured to be less than 1.0 μM)	25 to 100%	+++ (activity was measured to be less than 1.0 μM)
